Consider seven molecules from ChEMBL document CHEMBL5465560, “Selectivity Literature for EUbOPEN Chemogenomic Library” (2024).

For assay [1], the target named is Serine/threonine-protein kinase pim-1 (Homo sapiens, UniProt P11309). The experiment in a line: Selectivity interaction (KinomeScan (DiscoverX)) EUB0000666a PIM1. As to conditions: at 10 µM.
For assay [2], the target named is T1, Cyclin-G-associated kinase (Homo sapiens) (UniProt O14976).
T1 sequence (whole entry): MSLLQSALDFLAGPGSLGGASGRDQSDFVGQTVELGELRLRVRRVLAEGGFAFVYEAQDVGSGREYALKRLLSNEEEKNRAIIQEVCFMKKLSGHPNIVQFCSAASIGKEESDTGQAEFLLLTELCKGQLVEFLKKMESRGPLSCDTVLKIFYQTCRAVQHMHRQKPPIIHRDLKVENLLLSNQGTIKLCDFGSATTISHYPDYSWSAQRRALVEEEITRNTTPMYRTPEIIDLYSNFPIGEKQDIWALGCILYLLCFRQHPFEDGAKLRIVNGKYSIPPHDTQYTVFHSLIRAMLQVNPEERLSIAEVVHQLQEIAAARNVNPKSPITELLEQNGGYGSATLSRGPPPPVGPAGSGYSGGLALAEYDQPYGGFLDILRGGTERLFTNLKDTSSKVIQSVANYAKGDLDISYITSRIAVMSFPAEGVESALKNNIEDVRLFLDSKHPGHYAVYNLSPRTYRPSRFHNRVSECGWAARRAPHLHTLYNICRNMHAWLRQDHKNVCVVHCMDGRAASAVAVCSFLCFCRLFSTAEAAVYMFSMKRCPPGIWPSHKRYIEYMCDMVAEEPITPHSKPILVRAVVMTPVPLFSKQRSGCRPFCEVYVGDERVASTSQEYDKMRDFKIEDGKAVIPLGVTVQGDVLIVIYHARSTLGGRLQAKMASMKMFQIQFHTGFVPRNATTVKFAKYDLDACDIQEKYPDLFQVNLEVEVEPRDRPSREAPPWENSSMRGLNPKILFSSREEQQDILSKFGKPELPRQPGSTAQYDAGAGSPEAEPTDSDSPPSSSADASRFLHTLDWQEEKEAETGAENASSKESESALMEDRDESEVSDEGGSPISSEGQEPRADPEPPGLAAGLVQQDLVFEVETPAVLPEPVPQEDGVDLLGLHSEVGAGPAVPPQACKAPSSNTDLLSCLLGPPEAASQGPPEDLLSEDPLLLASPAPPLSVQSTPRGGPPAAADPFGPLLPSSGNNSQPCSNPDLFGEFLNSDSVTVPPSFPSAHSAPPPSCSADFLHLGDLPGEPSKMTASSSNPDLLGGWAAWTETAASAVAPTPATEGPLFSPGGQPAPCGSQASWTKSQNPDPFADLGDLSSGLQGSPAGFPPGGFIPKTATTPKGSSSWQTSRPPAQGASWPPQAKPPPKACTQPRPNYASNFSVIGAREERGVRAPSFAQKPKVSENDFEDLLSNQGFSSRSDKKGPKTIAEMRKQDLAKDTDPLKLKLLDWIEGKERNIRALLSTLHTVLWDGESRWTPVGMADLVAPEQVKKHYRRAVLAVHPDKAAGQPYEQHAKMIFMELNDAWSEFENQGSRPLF
Kind of assay: Selectivity interaction (KinomeScan (DiscoverX)) EUB0001079a GAK. To be noted: at 1 µM.

Assay [3] has as its target T2, Dual specificity mitogen-activated protein kinase kinase 6 (Homo sapiens) (UniProt P52564).
T2 sequence (whole entry): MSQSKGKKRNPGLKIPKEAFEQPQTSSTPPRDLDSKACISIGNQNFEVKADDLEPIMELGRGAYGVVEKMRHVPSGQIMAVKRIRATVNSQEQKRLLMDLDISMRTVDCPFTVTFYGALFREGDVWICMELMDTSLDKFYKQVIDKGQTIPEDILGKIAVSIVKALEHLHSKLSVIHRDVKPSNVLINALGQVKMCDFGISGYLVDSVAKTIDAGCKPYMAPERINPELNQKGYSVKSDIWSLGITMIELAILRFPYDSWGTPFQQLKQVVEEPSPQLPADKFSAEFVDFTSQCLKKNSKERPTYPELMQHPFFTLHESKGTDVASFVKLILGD
The experiment in a line: Selectivity interaction (KinomeScan (DiscoverX)) EUB0001079a MAP2K6. As to conditions: at 1 µM.

Assay [4] deals with Potassium voltage-gated channel subfamily A member 5 (Homo sapiens) (UniProt P22460). The experiment in a line: Selectivity interaction (Panel of kinases, GPCRs, ion channels and transporters (enzymatic assay)) EUB0000266bCl KCNA5.
The target in a further assay is Adenosine receptor A2a (Homo sapiens, UniProt P29274). Kind of assay: Selectivity interaction (Adenosine 2A receptor binding assay, human recombinant ) EUB0000877a ADORA2A.
The target of assay [5] is Serine/threonine-protein kinase N1 (Homo sapiens, UniProt Q16512). Kind of assay: Selectivity interaction (Kinase panel (Invitrogen)) EUB0000639a PKN1. As to conditions: at 200 nM.
Assay [6] concerns the target Tyrosine-protein kinase JAK2 (Homo sapiens, UniProt O60674). The experiment in a line: Selectivity interaction (ProQinase) EUB0000171b JAK2.
Assay [7] concerns the target T3, Ephrin type-B receptor 4 (Homo sapiens) (UniProt P54760).
T3 sequence (whole entry): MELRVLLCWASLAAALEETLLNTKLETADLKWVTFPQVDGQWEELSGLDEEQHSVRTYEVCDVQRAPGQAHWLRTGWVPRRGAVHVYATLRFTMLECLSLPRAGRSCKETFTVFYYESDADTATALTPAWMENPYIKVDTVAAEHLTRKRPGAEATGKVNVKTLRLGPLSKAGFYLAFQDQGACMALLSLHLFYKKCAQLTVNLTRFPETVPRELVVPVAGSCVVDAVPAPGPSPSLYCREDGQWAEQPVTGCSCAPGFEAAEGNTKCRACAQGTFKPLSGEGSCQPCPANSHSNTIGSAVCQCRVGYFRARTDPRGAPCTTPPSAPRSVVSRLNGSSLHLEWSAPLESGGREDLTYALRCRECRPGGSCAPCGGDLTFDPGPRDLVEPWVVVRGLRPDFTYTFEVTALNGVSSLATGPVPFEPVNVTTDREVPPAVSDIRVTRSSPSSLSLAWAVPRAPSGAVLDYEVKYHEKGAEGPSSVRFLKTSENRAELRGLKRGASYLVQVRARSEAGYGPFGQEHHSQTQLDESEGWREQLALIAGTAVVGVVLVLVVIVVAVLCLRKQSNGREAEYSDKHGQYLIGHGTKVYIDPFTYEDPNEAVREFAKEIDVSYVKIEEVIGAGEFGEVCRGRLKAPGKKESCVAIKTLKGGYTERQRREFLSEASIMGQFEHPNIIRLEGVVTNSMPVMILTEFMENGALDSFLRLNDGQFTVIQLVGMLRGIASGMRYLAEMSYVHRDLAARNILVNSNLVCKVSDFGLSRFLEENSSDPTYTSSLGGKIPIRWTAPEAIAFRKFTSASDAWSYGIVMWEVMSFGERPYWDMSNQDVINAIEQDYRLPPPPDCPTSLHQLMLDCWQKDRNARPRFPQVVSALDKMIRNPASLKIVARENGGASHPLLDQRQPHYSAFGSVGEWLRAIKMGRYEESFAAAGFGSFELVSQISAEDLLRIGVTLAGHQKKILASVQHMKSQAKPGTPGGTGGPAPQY
Kind of assay: Selectivity interaction (KinomeScan (DiscoverX)) EUB0000092b EPHB4. As to conditions: at 10 µM.

Sequence of Tyrosine-protein kinase JAK2 (O60674 whole entry): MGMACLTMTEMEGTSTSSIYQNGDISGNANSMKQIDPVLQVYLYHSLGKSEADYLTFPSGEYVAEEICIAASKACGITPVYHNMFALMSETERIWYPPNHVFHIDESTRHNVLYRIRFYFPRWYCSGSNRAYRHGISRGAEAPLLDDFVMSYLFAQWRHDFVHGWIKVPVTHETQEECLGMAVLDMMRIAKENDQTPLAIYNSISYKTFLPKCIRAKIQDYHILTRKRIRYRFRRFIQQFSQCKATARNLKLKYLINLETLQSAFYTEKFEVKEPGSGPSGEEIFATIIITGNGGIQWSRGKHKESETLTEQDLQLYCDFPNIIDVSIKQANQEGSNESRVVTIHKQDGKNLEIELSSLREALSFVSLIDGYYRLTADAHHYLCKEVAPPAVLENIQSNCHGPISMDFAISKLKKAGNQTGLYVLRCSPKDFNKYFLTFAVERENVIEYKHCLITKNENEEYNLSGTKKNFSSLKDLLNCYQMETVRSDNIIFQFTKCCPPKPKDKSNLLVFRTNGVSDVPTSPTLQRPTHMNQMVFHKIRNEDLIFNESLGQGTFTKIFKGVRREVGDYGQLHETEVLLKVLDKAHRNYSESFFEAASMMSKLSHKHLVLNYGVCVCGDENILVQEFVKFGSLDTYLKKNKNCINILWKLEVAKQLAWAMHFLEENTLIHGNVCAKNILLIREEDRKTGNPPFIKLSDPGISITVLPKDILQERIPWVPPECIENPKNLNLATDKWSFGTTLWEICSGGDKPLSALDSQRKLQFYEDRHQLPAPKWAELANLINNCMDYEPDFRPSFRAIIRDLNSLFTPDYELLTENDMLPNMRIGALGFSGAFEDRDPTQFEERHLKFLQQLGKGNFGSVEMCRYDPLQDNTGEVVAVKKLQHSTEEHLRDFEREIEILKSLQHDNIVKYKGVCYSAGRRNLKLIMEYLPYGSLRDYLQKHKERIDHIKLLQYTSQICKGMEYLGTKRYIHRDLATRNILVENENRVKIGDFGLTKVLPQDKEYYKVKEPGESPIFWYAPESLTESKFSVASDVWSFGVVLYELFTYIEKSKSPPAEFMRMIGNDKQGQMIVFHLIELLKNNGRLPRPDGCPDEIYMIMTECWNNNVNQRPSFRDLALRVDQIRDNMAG
Sequence of Serine/threonine-protein kinase pim-1 (P11309 whole entry, looked up): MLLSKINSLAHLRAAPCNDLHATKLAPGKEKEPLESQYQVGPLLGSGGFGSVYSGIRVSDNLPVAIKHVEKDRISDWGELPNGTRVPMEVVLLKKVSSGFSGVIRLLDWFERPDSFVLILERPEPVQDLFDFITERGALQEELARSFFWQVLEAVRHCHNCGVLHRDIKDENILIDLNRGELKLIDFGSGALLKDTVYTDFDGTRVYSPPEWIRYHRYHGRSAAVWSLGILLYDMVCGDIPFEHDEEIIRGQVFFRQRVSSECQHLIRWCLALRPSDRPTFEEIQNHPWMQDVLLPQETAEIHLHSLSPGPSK
Sequence of Potassium voltage-gated channel subfamily A member 5 (Homo sapiens) (P22460 whole entry): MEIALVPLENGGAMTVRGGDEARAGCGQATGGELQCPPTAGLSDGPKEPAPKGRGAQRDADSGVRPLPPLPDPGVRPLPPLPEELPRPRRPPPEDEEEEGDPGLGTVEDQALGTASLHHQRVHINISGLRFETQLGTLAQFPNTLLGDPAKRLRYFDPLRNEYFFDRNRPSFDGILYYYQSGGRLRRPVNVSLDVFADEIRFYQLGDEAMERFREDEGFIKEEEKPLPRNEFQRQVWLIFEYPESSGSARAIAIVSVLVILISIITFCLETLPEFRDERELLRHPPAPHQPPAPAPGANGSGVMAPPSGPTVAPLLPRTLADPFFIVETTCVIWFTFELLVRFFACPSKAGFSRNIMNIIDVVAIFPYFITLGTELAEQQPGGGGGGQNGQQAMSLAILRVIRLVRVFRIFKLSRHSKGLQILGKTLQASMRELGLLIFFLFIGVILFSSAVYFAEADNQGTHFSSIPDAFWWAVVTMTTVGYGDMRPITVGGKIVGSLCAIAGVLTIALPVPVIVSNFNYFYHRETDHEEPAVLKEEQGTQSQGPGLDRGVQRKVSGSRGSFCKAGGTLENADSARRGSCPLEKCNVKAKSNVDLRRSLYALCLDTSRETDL
Sequence of Adenosine receptor A2a (P29274 whole entry): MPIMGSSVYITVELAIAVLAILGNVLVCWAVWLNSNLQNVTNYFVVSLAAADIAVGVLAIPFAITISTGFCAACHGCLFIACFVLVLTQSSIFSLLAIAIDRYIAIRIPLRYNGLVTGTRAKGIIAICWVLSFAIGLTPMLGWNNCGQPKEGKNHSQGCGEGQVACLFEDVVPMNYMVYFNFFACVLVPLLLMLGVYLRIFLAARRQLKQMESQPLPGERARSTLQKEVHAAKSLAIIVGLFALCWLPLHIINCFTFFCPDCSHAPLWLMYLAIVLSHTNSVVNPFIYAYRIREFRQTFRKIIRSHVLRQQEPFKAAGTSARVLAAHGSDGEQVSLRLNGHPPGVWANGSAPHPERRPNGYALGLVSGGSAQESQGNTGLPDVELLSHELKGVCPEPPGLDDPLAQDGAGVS
Sequence of Serine/threonine-protein kinase N1 (Q16512 2-942 limits assumed): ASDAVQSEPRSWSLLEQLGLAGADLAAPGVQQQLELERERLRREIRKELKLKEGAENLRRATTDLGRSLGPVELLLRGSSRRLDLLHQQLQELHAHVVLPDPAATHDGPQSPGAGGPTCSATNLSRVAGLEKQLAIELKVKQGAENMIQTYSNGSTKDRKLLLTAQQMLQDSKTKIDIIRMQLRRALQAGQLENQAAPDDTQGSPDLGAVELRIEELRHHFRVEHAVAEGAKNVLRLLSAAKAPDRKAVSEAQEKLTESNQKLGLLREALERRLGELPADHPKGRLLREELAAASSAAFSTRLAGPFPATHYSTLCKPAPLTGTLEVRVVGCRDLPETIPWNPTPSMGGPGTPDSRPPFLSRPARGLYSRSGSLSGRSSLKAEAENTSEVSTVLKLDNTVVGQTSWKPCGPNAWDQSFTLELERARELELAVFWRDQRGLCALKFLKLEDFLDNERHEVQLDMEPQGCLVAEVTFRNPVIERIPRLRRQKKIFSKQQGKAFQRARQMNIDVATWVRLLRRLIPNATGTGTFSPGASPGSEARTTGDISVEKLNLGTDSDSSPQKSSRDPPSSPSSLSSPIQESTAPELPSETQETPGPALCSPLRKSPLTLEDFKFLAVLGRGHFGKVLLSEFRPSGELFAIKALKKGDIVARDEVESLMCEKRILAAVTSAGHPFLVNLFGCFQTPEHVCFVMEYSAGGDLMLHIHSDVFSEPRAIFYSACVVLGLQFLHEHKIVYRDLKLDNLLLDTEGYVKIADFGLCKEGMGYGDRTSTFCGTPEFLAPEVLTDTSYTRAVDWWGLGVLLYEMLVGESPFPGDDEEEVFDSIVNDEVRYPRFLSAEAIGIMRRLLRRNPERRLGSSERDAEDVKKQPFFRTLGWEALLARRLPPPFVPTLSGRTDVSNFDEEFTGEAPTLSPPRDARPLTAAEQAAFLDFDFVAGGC

Turning to `O=C(NOC[C@H](O)CO)c1ccc(F)c(F)c1Nc1ccc(I)cc1F`, in assay [1], the % of control came out at 100%.
With `Nc1cnc(N2CCc3cc(S(=O)(=O)Nc4c(F)cc(Cl)cc4F)cc(N4CCCC4=O)c32)nc1` [TP-020n], the % of control in assay [2] is 100%; in assay [3], 71%.
Molecule `CCn1c(-c2nc3cc(C(=O)N4CCCC(N)C4)ccc3n2C)cc2ccccc21` (centres undefined) showed a pXC50 in assay [4] of less than 4.3 M.
What is called IC50 is the point on the concentration scale where inhibition reaches its midpoint. With `CCC(=O)N1CC[C@H](Nc2ncnc3c2CN(c2cnc(OC)c(C(F)(F)F)c2)CC3)C1` [LENIOLISIB], the IC50 on Adenosine receptor A2a was more than 30 µM.
`CC[C@@H]1[C@H](F)C(=O)N[C@@H]1COc1nccc2cc(C(N)=O)c(OC)cc12` [ZIMLOVISERTIB] had a % of inhibition in assay [5] of 8.54%.
As for `C=CC(=O)Nc1cccc(C(=O)Nc2ccc(Nc3cc(-c4[nH]c(SC)nc4C)ccn3)cc2)c1`, the figures for the % of control in assay [6] (at 1 µM) and in assay [6] (at 5 µM) were 80% and 72%, respectively.
Turning to `CCC(=O)N1CCN(c2ccc(-n3c(=O)ccc4cnc5ccc(-c6cnc7ccccc7c6)cc5c43)cc2C(F)(F)F)CC1`, the % of control in assay [7] came out at 85%.
